What is called IC50 is the concentration that inhibits the measured activity by half.

For the assay, the target named is PDE5 (Homo sapiens (Human), UniProt O76074). Description: PDE5 Inhibition Assay (BPS PDE assay kit, fluorescence polarization). In kind it is biochemical. The method, then: Materials and Methods: PDE5 inhibition was assayed at BPS Bioscience (San Diego, Calif.) using BPS PDE assay kits (BPS Catalog number 60300, enzyme lot 090810). Test compounds were supplied as liquid solutions of 10 mM concentration in DMSO. Sildenafil, used as a standard was dissolved in DMSO. Intermediate dilutions were 10% DMSO in PDE assay buffer and tests at ranges from 0.1 to 100 nM. 0.1 ng of enzyme was used per reaction, and the substrate was 100 nM FAM-cGMP.
Assay conditions: A series of dilutions of the test compounds were prepared with 10% DMSO in assay buffer and 5 μl of the dilution was added to a 50 μl reaction so that the final concentration of DMSO is 1% in all of reactions. The enzymatic reactions were conducted at room temperature for 60 minutes in a 50 μl mixture containing PDE assay buffer, 100 nM FAM-cAMP or 100 nM FAM-cGMP, a PDE enzyme, and the test compound. After the enzymatic reaction, 100 μl of a binding solution (1:100 dilution of the binding agent with the binding agent diluent) was added to each reaction and the reaction was performed at room temperature for 60 minutes. Fluorescence intensity was measured at an excitation of 485 nm and an emission of 528 nm using a Tecan Infinite M1000 microplate reader.
Data analysis: PDE activity assays were performed in duplicate at each concentration.
Fluorescence intensity is converted to fluorescence polarization using the Tecan Magellan6 software. The fluorescence polarization data were analyzed using the computer software, Graphpad Prism. The fluorescence polarization (FPt) in absence of the compound in each data set was defined as 100% activity. In the absence of PDE and the compound, the value of fluorescent polarization (FPb) in each data set was defined as 0% activity. The percent activity in the presence of the compound was calculated according to the following equation: % activity=(FP−FPb)/(FPt−FPb)×100%, where FP=the fluorescence polarization in the presence of the compound.
The values of % activity versus a series of compound concentrations were then plotted using non-linear regression analysis of Sigmoidal dose-response curve generated with the equation Y=B+(T−B)/1+10^((LogEC50−X)×Hill Slope), where Y=percent activity, B=minimum percent activity, T=maximum percent activity, X=logarithm of compound and Hill Slope=slope factor or Hill coefficient. The IC50 value was determined by the concentration causing a half-maximal percent activity.
On the technique in general: Fluorescence polarisation rises when a labelled molecule tumbles more slowly, as on binding a larger partner.

`COc1ccc(CNc2c3c(nc4ccc(C#N)cc24)CCN(C)C3)cc1Cl` [B, 10-[(3-chloro-4-methoxybenzyl)amino]-2-methyl-1,2,3,4-tetrahydrobenzo[b][1,6]naphthyridine-8-carbonitrile] displayed an IC50 of 1 nM.
As for `CCN1CCc2nc3ccc(C#N)cc3c(NCc3ccc(OC)c(Cl)c3)c2C1` [C, 10-[(3-chloro-4-methoxybenzyl)amino]-2-ethyl-1,2,3,4-tetrahydrobenzo[b][1,6]naphthyridine-8-carbonitrile], the IC50 was found to be 0.2 nM.
The figure for `COc1ccc(CNc2c3c(nc4ccccc24)CN(C(C)(C)C)C3=O)cc1Cl` [Compound P, 2-(tert-butyl)-9-[(3-chloro-4-methoxybenzyl)amino]-2,3-dihydro-1H-pyrrolo[3,4-b]quinolin-1-one] is 333 nM.
The same measure for `CCN1Cc2nc3ccc(C#N)cc3c(NCc3ccc(OC)c(Cl)c3)c2C1=O` [K, 9-[(3-chloro-4-methoxybenzyl)amino]-2-ethyl-1-oxo-2,3-dihydro-1H-pyrrolo[3,4-b]quinoline-7-carbonitrile]: 0.059 nM; for `CCN1Cc2nc3ccc(OC)cc3c(NCc3ccc(OC)c(Cl)c3)c2C1=O` [L, 9-((3-chloro-4-methoxybenzyl)amino)-2-ethyl-7-methoxy-2,3-dihydro-1H-pyrrolo[3,4-b]quinolin-1-one]: 3.8 nM.
On to `CCN1Cc2nc3ccc(C(F)(F)F)cc3c(NCc3ccc(OC)c(Cl)c3)c2C1=O` [M, 9-[(3-chloro-4-methoxybenzyl)amino]-2-ethyl-7-(trifluoromethyl)-2,3-dihydro-1H-pyrrolo[3,4-b]quinolin-1-one], for which it took 0.29 nM to reach half-maximal inhibition (IC50). This IC50 lies about 13-fold lower than the previous one.
The same measure for `CCN1Cc2nc3ccc(Cl)cc3c(NCc3ccc(OC)c(Cl)c3)c2C1=O` [N, 7-chloro-9-[(3-chloro-4-methoxybenzyl)amino]-2-ethyl-2,3-dihydro-1H-pyrrolo[3,4-b]quinolin-1-one]: 1.7 nM; for `CCN1Cc2nc3ccccc3c(NCc3ccc(OC)c(Cl)c3)c2C1=O` [O, 9-[(3-chloro-4-methoxybenzyl)amino]-2-ethyl-2,3-dihydro-1H-pyrrolo[3,4-b]quinolin-1-one]: 64 nM.
